# Where two headings read alike, the source gives them in different places.
# Tests used:
# [1] = molecular target: CXCR-4 transfected U87 cell line (U87.CXCR4) (Homo sapiens (Human), UniProt P61073); experiment: Intracellular CXCL-12-induced calcium mobilization assay (FLIPR); format: cell-based; details: U87.CXCR4 cells, CXCL-12 25-50 ng/mL; read-out: IC50 CXCL-12 Ca2+ flux U87.CXCR4+
# Outline: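 U87.CXCR4 cells were seeded at 20,000 per well, cultured 12 hours, then loaded with 4 μM Fluo-2 AM for 45 min at 37° C. in HBSS with 20 mM HEPES and 0.2% BSA, pH 7.4. Calcium flux triggered by CXCL-12 (25-50 ng/mL) was tracked over time by FLIPR fluorescence at 37° C.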
# [2] = molecular target: Jurkat cells expressing CXCR4 (Homo sapiens (Human), UniProt P61073); experiment: Chemokine (CXCL12-AF647) binding inhibition assay; details: CXCL12-AF647 25 ng/mL, read-out: IC50 CXCL-12 binding Jurkat
# Sequence of Jurkat cells expressing CXCR4 (P61073 whole entry): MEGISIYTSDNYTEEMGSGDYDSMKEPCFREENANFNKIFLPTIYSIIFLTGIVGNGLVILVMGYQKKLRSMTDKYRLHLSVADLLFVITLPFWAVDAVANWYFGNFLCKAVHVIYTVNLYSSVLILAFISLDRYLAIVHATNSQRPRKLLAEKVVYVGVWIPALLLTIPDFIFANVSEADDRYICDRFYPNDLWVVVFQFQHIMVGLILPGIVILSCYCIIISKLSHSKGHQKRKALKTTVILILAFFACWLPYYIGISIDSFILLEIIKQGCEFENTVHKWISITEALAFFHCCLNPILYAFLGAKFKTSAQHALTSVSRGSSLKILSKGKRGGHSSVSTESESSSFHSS
# Outline: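 Cells in HBSS, 20 mM HEPES, 0.2% BSA, pH 7.4, preincubated 15 min at room temperature with compound, then 25 ng/mL CXCL12-AF647 for 30 min. After washing and paraformaldehyde fixation, bound ligand read by flow cytometry; percent inhibition calculated from MFI relative to unlabeled and ligand-only controls.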
# in vitro = details: human, Caco-2, pH 7.4
# Outline: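 Compounds at 10 μM in HBSS pH 7.4 (0.1–0.3% DMSO) were dosed on Caco-2 monolayers, apical-to-basolateral and basolateral-to-apical, for 90 min at 37 °C, in duplicate. Monolayer integrity was checked by TEER and lucifer yellow flux, read by fluorescence at 485/535 nm. Compound was quantified by LC-MS/MS and Papp calculated.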
# [3] = Mouse brain uptake assay, 0-24 h, 4 time points; format: in vivo; details: male, 3 mg/kg IV, 4 time points; for Kp / Kp uu: CD1, brain and plasma; for Kp / Kp uu / clearance / half-life: Mouse; for clearance / half-life: CD1, plasma; for half-life: read-out: t½ (converted)
# Experimental: The study design (9 animals) consisted of administrating the drug (IV: 3 mg/kg (5 mL/kg) via tail vein injection) and collecting samples at terminal bleeding for plasma and brain at 0.083, 0.5 and 1 h. The blood collection was performed as follows: the animal was restrained manually and approximately 150 μL blood/time point was collected into a dipotassium EDTA tube via retro orbital puncture under anesthesia with isoflurane. The blood sample was put on ice and centrifuged to obtain a plasma sample (2000 g, 5 min under 4° C.) within 15 minutes. The brain collection was performed as follows: a mid-line incision was made in the animal's scalp and the skin was retracted. Using small bone cutters and rongeurs, the skull overlying the brain was removed. The brain was removed using a spatula and the brain rinsed with cold saline. The brain was placed in screw-top tubes, and the tubes were stored at −70° C. until analysis. The IV dosing solution was prepared in 50 mM citrate buffer (pH 4.0) at 0.6 mg/mL.
# An aliquot of 30 μL sample was added to 150 μL MeCN containing 50 ng/mL IS (Dexamethasone). The mixture was vortexed for 5 min and centrifuged at 14,000 rpm for 5 min. An aliquot of 5 μL supernatant was injected for LC-MS/MS analysis.
# An aliquot of 30 μL brain homogenate (brain:PBS=1:3, w/v) sample was added to 150 μL IS in ACN (Dexamethasone, 50 ng/mL). The mixture was vortexed for 5 min and centrifuged at 14,000 rpm for 5 min. An aliquot of 5 μL supernatant was injected for LC-MS/MS analysis.
# The sample analysis was performed on LCMS/MS-003 (API4000, triple quadruple) under the following conditions: positive ion, ESI, MRM detection using dexamethasone as internal standard. HPLC conditions: mobile phase A: H2O (0.025% formic acid (FA) with 1 mM NH4OAc); mobile phase B: MeOH (0.025% FA with 1 mM NH4OAc) on Waters X-Bridge C18 (2.1×50 mm, 2.5 μm) column at 60° C.
# A similar experiment was performed with 4 time points taken from 0-24 h.
# [4] = Fraction of drug unbound to plasma proteins, mouse; format: in vitro ADME; details: Mouse plasma proteins (Table 10); read-out: Fu (p) %
# [5] = Fraction of drug unbound to brain proteins, mouse; format: in vitro ADME; details: Mouse brain proteins (Table 10); read-out: Fu (b) %
# [6] = CD1, Mouse brain, read-out: AUClast (b)
# [7] = CD1, Mouse plasma, read-out: AUClast (p)
# Sequence of CXCR-4 transfected U87 cell line (U87.CXCR4) (P61073 whole entry): as above
Compound,IC50 [1],IC50 [2],"Papp A→B at 90 min, 10 μM (in vitro)","Papp B→A at 90 min, 10 μM (in vitro)","efflux ratio at 90 min, 10 μM (in vitro)","AUC(0-t) [3, 6]","AUC(0-t) [3, 7]",Kp [3],Kp uu [3],clearance [3],half-life [3],fraction unbound [4],fraction unbound [5]
CCOCc1c([C@H]2CCC[C@@H](c3ncccc3Cl)N2C)nc2cccc(N3CCN(C)CC3)n12 [Compound I-117],0.01 to 100 nM,0.01 to 100 nM,10 to 30 ×10⁻⁶ cm/s,10 to 30 ×10⁻⁶ cm/s,0.1 to 10,32300 ng·h/mL,1480 ng·h/mL,21.8,3.35,33.5 mL/min/kg,3.56 h,0.039,0.006
CN1CCN(c2cccc3nc([C@H]4CCC[C@@H](c5ncccc5Cl)N4C)c(Cl)n23)CC1 [Compound I-115],0.01 to 100 nM,0.01 to 100 nM,0.1 to 10 ×10⁻⁶ cm/s,0.1 to 10 ×10⁻⁶ cm/s,0.1 to 10,26900 ng·h/mL,1400 ng·h/mL,19.2,3.68,35.3 mL/min/kg,3.96 h,0.026,0.005
Cc1c([C@@H]2CCC[C@H](c3ncccc3Cl)N2)nc2cccc(N3CCN(C)CC3)n12 (stereo in doubt) [Compound I-193],0.01 to 100 nM,0.01 to 100 nM,10 to 30 ×10⁻⁶ cm/s,10 to 30 ×10⁻⁶ cm/s,0.1 to 10,13700 ng·h/mL,2130 ng·h/mL,6.41,0.54,22 mL/min/kg,6.42 h,0.047,0.004
Cc1cccnc1[C@@H]1CCC[C@H](c2cn3c(N4CCN(C)C(=O)C4)cccc3n2)N1 [Compound I-210],≥ 1000 nM,≥ 1000 nM,0.1 to 10 ×10⁻⁶ cm/s,10 to 30 ×10⁻⁶ cm/s,> 30,–,–,–,–,–,–,–,–
Cc1cccnc1[C@@H]1CCC[C@H](c2nc3ccccn3c2C=C2CCN(C)CC2)N1C [Compound I-83],100 to 1000 nM,0.01 to 100 nM,0.1 to 10 ×10⁻⁶ cm/s,10 to 30 ×10⁻⁶ cm/s,10 to 30,–,–,–,–,–,–,–,–
Cc1cccnc1[C@@H]1CCC[C@H](c2nc3cccc(N4CCN(C5CC5)CC4)n3c2Br)N1C [Compound I-67],100 to 1000 nM,0.01 to 100 nM,0.1 to 10 ×10⁻⁶ cm/s,0.1 to 10 ×10⁻⁶ cm/s,0.1 to 10,–,–,–,–,–,–,–,–
Cc1cccnc1[C@@H]1CCC[C@H](c2cn3c(N4CCN(C)CC4)cccc3n2)N1C(C)C [Compound I-126],0.01 to 100 nM,0.01 to 100 nM,0.1 to 10 ×10⁻⁶ cm/s,10 to 30 ×10⁻⁶ cm/s,10 to 30,–,–,–,–,–,–,–,–
CN1CCN(c2cccc3nc([C@H]4CCC[C@@H](c5ncccc5Cl)N4)c(Cl)n23)CC1 [Compound I-147],100 to 1000 nM,0.01 to 100 nM,10 to 30 ×10⁻⁶ cm/s,10 to 30 ×10⁻⁶ cm/s,0.1 to 10,–,–,–,–,–,–,–,–
COc1cccnc1[C@@H]1CCC[C@H](c2nc3cccc(N4CCN(C)CC4)n3c2Cl)N1 [Compound I-173],≥ 1000 nM,100 to 1000 nM,0.1 to 10 ×10⁻⁶ cm/s,10 to 30 ×10⁻⁶ cm/s,0.1 to 10,–,–,–,–,–,–,–,–
CCN1CCN(c2cccc3nc([C@H]4CCC[C@@H](c5ncccc5C)N4C)c(Cl)n23)CC1 [Compound I-88],0.01 to 100 nM,0.01 to 100 nM,0.1 to 10 ×10⁻⁶ cm/s,0.1 to 10 ×10⁻⁶ cm/s,0.1 to 10,–,–,–,–,–,–,–,–
Cc1cccnc1[C@@H]1CCC[C@H](c2cn3c(N4CCNC5(CC5)C4)cccc3n2)N1C [Compound I-156],0.01 to 100 nM,0.01 to 100 nM,0.1 to 10 ×10⁻⁶ cm/s,10 to 30 ×10⁻⁶ cm/s,0.1 to 10,–,–,–,–,–,–,–,–
CCN1[C@@H](c2nc3cccc(N4CCN(C)CC4)n3c2Br)CCC[C@H]1c1ncccc1C [Compound I-46],0.01 to 100 nM,0.01 to 100 nM,0.1 to 10 ×10⁻⁶ cm/s,0.1 to 10 ×10⁻⁶ cm/s,0.1 to 10,–,–,–,–,–,–,–,–
Cc1cccnc1[C@@H]1CCC[C@H](c2cn3c(N4CCN(CC(F)(F)F)CC4)cccc3n2)N1C [Compound I-14],100 to 1000 nM,100 to 1000 nM,10 to 30 ×10⁻⁶ cm/s,10 to 30 ×10⁻⁶ cm/s,0.1 to 10,–,–,–,–,–,–,–,–
Cc1cccnc1[C@H]1CCC[C@@H](c2nc3cccc(N4CCN(C)CC4)n3c2C)N1 (stereo in doubt) [Compound I-192],0.01 to 100 nM,0.01 to 100 nM,0.1 to 10 ×10⁻⁶ cm/s,10 to 30 ×10⁻⁶ cm/s,0.1 to 10,–,–,–,–,–,–,–,–
CCN1[C@@H](c2cn3c(N4CCN(C(C)C)CC4)cccc3n2)CCC[C@H]1c1ncccc1C [Compound I-37],0.01 to 100 nM,0.01 to 100 nM,0.1 to 10 ×10⁻⁶ cm/s,10 to 30 ×10⁻⁶ cm/s,0.1 to 10,–,–,–,–,–,–,–,–
Cc1cccnc1[C@@H]1CCC[C@H](c2nc3ccccn3c2N2CCN(C)CC2)N1 [Compound I-154],≥ 1000 nM,100 to 1000 nM,0.1 to 10 ×10⁻⁶ cm/s,10 to 30 ×10⁻⁶ cm/s,0.1 to 10,–,–,–,–,–,–,–,–

# — patent US10759796B2, “CXCR4 inhibitors and uses thereof” (X4 Pharmaceuticals, Inc., priority 2016, dated 2020)
